Source: patent US7541358B2, “1-aryl-or 1-alkylsulfonylbenzazole derivatives as 5-hydroxytryptamine-6 ligands” (Wyeth, priority 2001, dated 2009)

What was measured:
[1] = target: T1, human cloned 5-HT6 receptors (Homo sapiens, UniProt P50406); assay: 5-HT6 binding affinity ([3H]-LSD displacement, membranes of Hela cells expressing human cloned 5-HT6 receptors); conditions: [3H]-LSD 3.0 nM, Hela cell membranes; for Ki: 120 min at room temperature; for % inhibition at 1 μM concentration / inhibition at 1 µM: 1 μM test compound; for inhibition at 1 µM: read-out: % inhibition at 1 μM concentration
T1 construct: expressed in transfected cells; host or cells: Hela cells
Procedure: The affinity of test compounds for the serotonin 5-HT6 receptor is evaluated in the following manner. Cultured Hela cells expressing human cloned 5-HT6 receptors are harvested and centrifuged at low speed (1,000×g) for 10.0 min to remove the culture media. The harvested cells are suspended in half volume of fresh physiological phosphate buffered saline solution and recentrifuged at the same speed. This operation is repeated. The collected cells are then homogenized in ten volumes of 50 mM Tris.HCl (pH 7.4) and 0.5 mM EDTA. The homogenate is centrifuged at 40,000×g for 30.0 min and the precipitate is collected. The obtained pellet is resuspended in 10 volumes of Tris.HCl buffer and recentrifuged at the same speed. The final pellet is suspended in a small volume of Tris.HCl buffer and the tissue protein content is determined in aliquots of 10-25 μl volumes. Bovine Serum Albumin is used as the standard in the protein determination according to the method described in Lowry et al., J. Biol. Chem., 193:265 (1951). The volume of the suspended cell membranes is adjusted to give a tissue protein concentration of 1.0 mg/ml of suspension. The prepared membrane suspension (10 times concentrated) is aliquoted in 1.0 ml volumes and stored at −70° C. until used in subsequent binding experiments.
Binding experiments are performed in a 96 well microtiter plate format, in a total volume of 200 μl. […] The test compounds are added in 20.0 μl volume.
The reaction is allowed to proceed in the dark for 120 min at room temperature, at which time, the bound ligand-receptor complex is filtered off on a 96 well unifilter with a Packard Filtermate® 196Harvester. The bound complex caught on the filter disk is allowed to air dry and the radioactivity is measured in a Packard TopCount® equipped with six photomultiplier detectors, after the addition of 40.0 μl Microscint®-20 scintillant to each shallow well. The unifilter plate is heat-sealed and counted in a PackardTopCount® with a tritium efficiency of 31.0%.
Binding in the presence of varying concentrations of test compound is expressed as a percentage of specific binding in the absence of test compound. The results are plotted a log % bound versus log concentration of test compound. […] A linear regression line of data points is plotted, from which the IC50 value is determined and the Ki value is determined based upon the following equation: Ki=IC50/(1+L/KD) where L is the concentration of the radioactive ligand used and KD is the dissociation constant of the ligand for the receptor, both expressed in nM.

T1 sequence (P50406 whole entry): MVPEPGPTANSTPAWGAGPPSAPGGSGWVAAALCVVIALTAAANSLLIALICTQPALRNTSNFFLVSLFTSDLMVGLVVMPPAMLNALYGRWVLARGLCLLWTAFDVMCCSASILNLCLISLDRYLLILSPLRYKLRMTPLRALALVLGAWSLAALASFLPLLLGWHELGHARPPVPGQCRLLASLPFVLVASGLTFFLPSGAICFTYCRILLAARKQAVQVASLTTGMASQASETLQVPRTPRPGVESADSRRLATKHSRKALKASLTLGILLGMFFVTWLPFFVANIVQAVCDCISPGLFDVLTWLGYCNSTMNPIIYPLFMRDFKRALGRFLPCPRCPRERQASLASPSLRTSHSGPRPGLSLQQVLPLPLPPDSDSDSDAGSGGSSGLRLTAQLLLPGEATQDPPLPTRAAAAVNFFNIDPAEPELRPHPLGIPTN

| Compound | Ki [1] [nM] | melting point [°C] | % inhibition at 1 μM concentration [1] [% @ 1 μM*] | inhibition at 1 µM [1] [%] |
| --- | --- | --- | --- | --- |
| O=S(=O)(c1cc(Cl)c(Cl)s1)n1ncc2c(OCCN3CCCCC3)cccc21 [Example 23, 1-[(4,5-dichlorothien-2-yl)sulfonyl]-4-[2-(piperidin-1-yl)ethoxy]-1H-indazole] | 18 | 214 to 216 | – | – |
| O=S(=O)(c1ccc(Cl)s1)n1ncc2c(OCCN3CCCCC3)cccc21 [Example 24, 1-[(5-chlorothien-2-yl)sulfonyl]-4-[2-(piperidin-1-yl)ethoxy]-1H-indazole] | 12 | 187 to 189 | – | – |
| N-(3-methoxybenzyl)-N-(2-{[1-(phenylsulfonyl)-1H-indol-4-yl]oxy}ethylamine hydrochloride [Example 7b] | – | – | 95 | – |
| O=S(=O)(c1cccs1)n1ncc2c(OCCN3CCCCC3)cccc21 [Example 25, 4-[2-(piperidin-1-yl)ethoxy]-1-(thien-2-ylsulfonyl)-1H-indazole] | 8 | 172 to 175 | – | – |
| O=S(=O)(c1cc(Cl)c(Cl)s1)n1ccc2cc(OCCN3CCCCC3)ccc21 [Example 12, 1-[(4,5-dichlorothien-2-yl)sulfonyl]-5-[2-(piperidin-1-yl)ethoxy]-1H-indole] | – | 222 to 224 | – | 65 |
| O=S(=O)(c1ccc(Cl)s1)n1ccc2cc(OCCN3CCCCC3)ccc21 [Example 11, 1-[(5-chlorothien-2-yl)sulfonyl]-5-[2-(piperidin-1-yl)ethoxy]-1H-indole] | – | 222 to 224 | – | 51 |
| Cc1c(S(=O)(=O)n2ncc3c(OCCN4CCCCC4)cccc32)sc2ccc(Cl)cc12 [Example 26, 1-[(5-chloro-3-methyl-1-benzothien-2-yl)sulfonyl]-4-[2-(piperidin-1-yl)ethoxy]-1H-indazole] | 53 | 216 to 218 | – | – |
| Cc1c(S(=O)(=O)n2ccc3cc(OCCN4CCCCC4)ccc32)sc2ccc(Cl)cc12 [Example 14, 1-[(5-chloro-3-methyl-1-benzothien-2-yl)sulfonyl]-5-[2-(piperidin-1-yl)ethoxy]-1H-indole] | – | – | – | 65 |
| O=S(=O)(c1c(Cl)nc2sccn12)n1ccc2cc(OCCN3CCCCC3)ccc21 [Example 13, 1-[(6-chloroimidazo[2,1-b][1,3]thiazol-5-yl)sulfonyl]-5-[2-(piperidin-1-yl)ethoxy]-1H-indole] | 22 | 60 | – | – |
| O=[N+]([O-])c1ccc(S(=O)(=O)n2ncc3c(OCCN4CCCCC4)cccc32)cc1 [Example 20, 1-[(4-nitrophenyl)sulfonyl]-4-[2-(l-piperidinyl)ethoxy]1H-indazole] | – | – | 76 | – |
| O=S(=O)(c1c(Cl)nc2sccn12)n1ncc2c(OCCN3CCCCC3)cccc21 [Example 22, 1-[(6-chloroimidazo[2,1-b][1,3]thiazol-5-yl)sulfonyl]-4-[2-(piperidin-1-yl)ethoxy]-1H-indazole] | 2 | 88 to 90 | – | – |
| N,N-Bis(3-methoxybenzyl)-N-(2-{[1-(phenylsulfonyl)-1H-indol-4-yl]oxy}ethylamine [Example 7a] | – | – | 94 | – |
| Cc1c(S(=O)(=O)n2ccc3c(OCCN4CCCCC4)cccc32)sc2ccc(Cl)cc12 [Example 15, 1-[(5-chloro-3-methyl-1-benzothien-2-yl)sulfonyl]-4-[2-(piperidin-1-yl)ethoxy]-1H-indole] | 71 | 217 to 219 | – | – |
